Reference: publication PMC3620317, “Optimisation of Embryonic and Larval ECG Measurement in Zebrafish for Quantifying the Effect of QT Prolonging Drugs” (PLoS ONE, 2013)
Where “and” joins values, the source holds several entries; their conditions need not be identical. Equal values may be shown once.

Legend:
[1] = parameters: method as in earlier work; conditions: zebrafish larvae ref 56; cited from earlier work
3 dpf zebrafish larvae = assay: ECG recording in zebrafish larvae before and after drug treatment; conditions: for AV block: at particular concentrations and exposure times; for Effect on QTc interval (in words): 3 dpf zebrafish larvae, over the tested concentrations; for Mean QTc interval duration, After / Mean interval duration QT / Mean interval duration QTc / Mean interval duration RR: 3 dpf; for Effect on heart rate (ƒH): immobilising agents, MESAB at very high concentrations, tubocurarine at any tested concentration; for Mean interval duration QT / Mean interval duration QTc / Mean interval duration RR: n = 10
Procedure: For all experiments, except the anaesthetic and tubocurarine experiments, fish larvae were anaesthetised in ethyl-3 aminobenzoate methanesulfonate (0.3 mg/ml; Sigma) for 5–10 mins before transfer into 3 ml of embryo medium in the plate used for subsequent measurements. Once anaesthetised, one embryo was then transferred to the ECG recording plate (mini Petri dish with an unscented paraffin wax surface, containing 3 ml of fresh E3 embryo medium without MESAB). The embryo was positioned ventrally within a groove in the wax, and the tip (2 µm diameter) of a filled pre-pulled borosilicate glass micropipette (P84, World Precision Instruments) was positioned on the skin surface between the ventricle and atrium (no penetration) using micromanipulators (Narishige) and Inchworm step motors (Burleigh), viewed under a Nikon microscope (SMZ600). The micropipettes were filled with MicroFil (P85, World Precision Instruments) in 3 M potassium acetate solution (Sigma) and coloured with methylene blue (Sigma) to easier visualise the tips during recordings. A chloridised silver wire which carried the electrical signal to the amplifier was inserted into the micropipettes and a second reference electrode placed in the surrounding medium during recordings. The differential amplifier (NPI electronics) used for recording was operated in DC mode with the high pass filter set at 0.1 Hz. The raw ECG signals were digitised (PowerLab; ADI Instruments) and viewed using LabChart 7 (ADI Instruments).
Non-invasive recordings were taken by applying slight pressure over the surface of the heart using the tip of a glass capillary. Invasive recordings were taken by increasing the speed and also the distance moved by the step motor to puncture the skin over the heart. All of the recording equipment was housed on an air table within a grounded Faraday cage to minimise background noise. Experiments were performed at room temperature (21°C) except when otherwise stated. Temperature was controlled using a sensor placed in the recording plate and a homemade heating element (Cryocon 24 temperature controller). For optimisation experiments, recordings were taken for 5 mins. For the temperature experiments, embryos were initially acclimatised to each temperature for 30 mins before taking a recording of 5 mins. For drug treatments, ECG recordings were taken continuously after drug addition. A 5 mins segment before drug addition and a 15 minute segment where QT prolongation was first apparent by visual observation were selected for analysis.
All drug stocks were made using either DMSO or distilled water depending on solubility, then diluted using E3 embryo medium to make up the final concentrations for recording purposes with DMSO levels at 1%. ECG recordings were taken for 5 mins in 3 ml of embryo medium before addition of drug directly to the recording plate (1 ml) to produce the desired concentration by undergoing a 1 in 4 dilution.
Analysis of the digitised ECG signal was carried out using LabChart and the mean intervals for the ECG parameters R-R, QRS, QT and QTc were calculated. For drug treatments the percentage change in the corrected QT interval (QTc) before and after drug administration was compared. One way ANOVA analysis was then performed to determine statistical significance between differences observed.
Z factor scores were also calculated to determine the robustness of the ECG system as a screening tool, using the mean QTc percentage change before and after drug treatment for each individual fish. The values before drug treatment were standardised. The Z factor score was calculated using the following equation: Z = 1– [3×(σp+σn)/(µp - µn)],
where µp and σp represent mean and SD after treatment, while µn and σn represent mean and SD before treatment. Z factor scores fall into the following range: 1 = ideal, 0.5–1 = excellent, 0–0.5 = marginal, <0 = poor.

3 dpf zebrafish = assay: Exclusion of motion artefact: myocardial contractility under excitation-contraction uncouplers; format: in vivo; conditions: for Effect on contraction of cardiomyocytes / myocardial contractility: drug added to embryo holding chamber
Procedure: Firstly, recordings were performed with and without cromakalim and secondly, comparing invasive (intracardial) and non-invasive surface recordings. Cromakalim was added to the embryo holding chamber and ECG signals were recorded before and after drug exposure (QTc values shown in Table S1). […] Therefore, as an independent approach we compared ECG signals from invasive and non-invasive electrode positioning. There was minimal difference between recordings taken invasively and non-invasively (n = 5; Fig. 2B, Table S2).

[2] = tubocurarine 100 μM, continuous exposure
[3] = tubocurarine 400 μM, continuous exposure
[4] = MESAB 0.1 mg/ml, prior anaesthesia 5–10 minutes
[5] = MESAB 0.3 mg/ml, prior anaesthesia 5–10 minutes
[6] = MESAB 0.5 mg/ml, prior anaesthesia 5–10 minutes
[7] = MESAB 1 mg/ml, prior anaesthesia 5–10 minutes

For `CC(C)(C)c1ccc(C(O)CCCN2CCC(C(O)(c3ccccc3)c3ccccc3)CC2)cc1` (stereo not drawn) [terfenadine], the “Metabolism in zebrafish larvae” value [1] is listed as “almost completely metabolised to azacyclone and terfenadine alcohol”, the “Arrhythmia, ECG screenshot” value (3 dpf zebrafish larvae; 50 µM terfenadine, after 40 minutes of treatment, 3 dpf larva) is listed as “arrhythmic phenotype with the presence of ectopic beats” and the AV block (3 dpf zebrafish larvae; 3 dpf larvae) is listed as 2∶1 AV block. For the same compound, the AV block (3 dpf zebrafish larvae; 3 dpf larvae, listed as Terfenadine) was “induced an atrioventricular (AV) block” and the Arrhythmia development (3 dpf zebrafish larvae; time and concentration-dependent, 3 dpf larvae) was “development of an arrhythmia”.

For penicillin, the “Effect on QTc interval (in words)” value (3 dpf zebrafish larvae) was “no effect on the QTc interval”, the “Mean QTc interval duration, After” value (3 dpf zebrafish larvae; penicillin 0.1 µM, negative control, n = 8, before drug 0.497 s) was 0.495 s and the “Mean QTc interval duration, After” value (3 dpf zebrafish larvae; penicillin 0.3 µM, negative control, n = 8, before drug 0.487 s) was 0.492 s. The “Mean QTc interval duration, After” value (3 dpf zebrafish larvae; penicillin 10 µM, negative control, n = 8, before drug 0.490 s) was 0.500 s, the “Mean QTc interval duration, After” value (3 dpf zebrafish larvae; penicillin 30 µM, negative control, n = 8, before drug 0.494 s) was 0.503 s and the “Mean QTc interval duration, After” value (3 dpf zebrafish larvae; penicillin 50 µM, negative control, n = 8, before drug 0.489 s) was 0.488 s. The “Mean QTc interval duration, After” value (3 dpf zebrafish larvae; penicillin 100 µM, negative control, n = 8, before drug 0.506 s) was 0.508 s, the “Mean QTc interval duration, After” value (3 dpf zebrafish larvae; penicillin 200 µM, negative control, n = 8, before drug 0.478 s) was 0.483 s and the “Mean QTc interval duration, After” value (3 dpf zebrafish larvae; penicillin 300 µM, negative control, n = 8, before drug 0.457 s) was 0.454 s. The “Mean QTc interval duration, After” value (3 dpf zebrafish larvae; penicillin 400 µM, negative control, n = 8, before drug 0.514 s) was 0.507 s and the “Mean QTc interval duration, After” value (3 dpf zebrafish larvae; penicillin 1000 µM, negative control, n = 8, before drug 0.511 s) was 0.501 s.

For `O=C(CCCN1CCC(O)(c2ccc(Cl)cc2)CC1)c1ccc(F)cc1` [haloperidol], the “Effect on QTc interval (in words)” value (3 dpf zebrafish larvae) was “apparent QT prolongation, which was found to be similar at various concentrations”, the AV block (3 dpf zebrafish larvae; 3 dpf larvae) was “induced an atrioventricular (AV) block and 2∶1 AV block” and the “Mean QTc interval duration, After” value (3 dpf zebrafish larvae; haloperidol 50 µM, n = 8, before drug 0.499 s) was 0.586 s. For the same compound, the “Mean QTc interval duration, After” value (3 dpf zebrafish larvae; haloperidol 100 µM, n = 8, before drug 0.511 s) was 0.603 s, the “Mean QTc interval duration, After” value (3 dpf zebrafish larvae; haloperidol 200 µM, n = 8, before drug 0.504 s) was 0.593 s and the “Mean QTc interval duration, After” value (3 dpf zebrafish larvae; haloperidol 300 µM, n = 8, before drug 0.480 s) was 0.576 s.

For `O=c1[nH]c2ccccc2n1C1CCN(CCCC(c2ccc(F)cc2)c2ccc(F)cc2)CC1` [pimozide], the “Effect on QTc interval (in words)” value (3 dpf zebrafish larvae) was “statistically significant increase in the corrected QT interval”, the AV block (3 dpf zebrafish larvae; 3 dpf larvae) was “induced an atrioventricular (AV) block” and the “Mean QTc interval duration, After” value (3 dpf zebrafish larvae; pimozide 50 µM, n = 8, before drug 0.491 s) was 0.629 s. The “Mean QTc interval duration, After” value (3 dpf zebrafish larvae; pimozide 100 µM, n = 8, before drug 0.470 s) was 0.610 s.

In the case of `CC1(C)Oc2ccc(C#N)cc2C(N2CCCC2=O)C1O` (stereo not drawn) [cromakalim], the “Effect on contraction of cardiomyocytes / myocardial contractility” value (3 dpf zebrafish) is reported as “did not reduce contraction of cardiomyocytes”, the “Effect on QTc interval (in words)” value (3 dpf zebrafish larvae) is reported as “no perturbation to the QTc interval” and the “Mean QTc interval duration, After” value (3 dpf zebrafish larvae; cromakalim 10 µM, n = 5, before drug 0.458 s) is reported as 0.461 s. For the same compound, the “Mean QTc interval duration, After” value (3 dpf zebrafish larvae; cromakalim 25 µM, n = 5, before drug 0.459 s) was 0.460 s, the “Mean QTc interval duration, After” value (3 dpf zebrafish larvae; cromakalim 50 µM, n = 5, before drug 0.469 s) was 0.464 s and the “Mean QTc interval duration, After” value (3 dpf zebrafish larvae; cromakalim 100 µM, n = 5, before drug 0.453 s) was 0.449 s. For the same compound, the “Mean QTc interval duration, After” value (3 dpf zebrafish larvae; cromakalim 200 µM, n = 5, before drug 0.476 s) was 0.476 s, the “Mean QTc interval duration, After” value (3 dpf zebrafish larvae; cromakalim 300 µM, n = 5, before drug 0.475 s) was 0.472 s and the “Mean QTc interval duration, After” value (3 dpf zebrafish larvae; cromakalim 400 µM, n = 5, before drug 0.468 s) was 0.474 s.

For `COc1cc2c3cc1Oc1cc(ccc1O)C[C@@H]1c4c(cc(OC)c(O)c4Oc4ccc(cc4)C[C@@H]3N(C)CC2)CC[N+]1(C)C` [tubocurarine], the “Effect on heart rate (ƒH)” value (3 dpf zebrafish larvae) was “did not affect ƒH at any of the tested concentrations”, the “Mean interval duration QT” value (3 dpf zebrafish larvae; [2]) was 0.3263 s and the “Mean interval duration QTc” value (3 dpf zebrafish larvae; [2]) was 0.4733 s. For the same compound, the “Mean interval duration RR” value (3 dpf zebrafish larvae; [2]) was 0.4755 s, the “Mean interval duration QT” value (3 dpf zebrafish larvae; [3]) was 0.3306 s and the “Mean interval duration QTc” value (3 dpf zebrafish larvae; [3]) was 0.4755 s. For the same compound, the “Mean interval duration RR” value (3 dpf zebrafish larvae; [3]) was 0.4863 s.

For `COc1ccc(CCN(C)CCCC(C#N)(c2ccc(OC)c(OC)c2)C(C)C)cc1OC` (stereo not drawn) [verapamil], the “Effect on QTc interval (in words)” value (3 dpf zebrafish larvae) was “increased the QTc interval”, the “Mean QTc interval duration, After” value (3 dpf zebrafish larvae; verapamil 10 µM, n = 8, before drug 0.482 s) was 0.486 s and the “Mean QTc interval duration, After” value (3 dpf zebrafish larvae; verapamil 25 µM, n = 8, before drug 0.478 s) was 0.484 s. The “Mean QTc interval duration, After” value (3 dpf zebrafish larvae; verapamil 50 µM, n = 8, before drug 0.471 s) was 0.529 s, the “Mean QTc interval duration, After” value (3 dpf zebrafish larvae; verapamil 100 µM, n = 8, before drug 0.473 s) was 0.578 s and the “Mean QTc interval duration, After” value (3 dpf zebrafish larvae; verapamil 200 µM, n = 8, before drug 0.484 s) was 0.591 s. For the same compound, the “Mean QTc interval duration, After” value (3 dpf zebrafish larvae; verapamil 300 µM, n = 8, before drug 0.477 s) was 0.622 s, the “Mean QTc interval duration, After” value (3 dpf zebrafish larvae; verapamil 400 µM, n = 8, before drug 0.481 s) was 0.609 s and the “Mean QTc interval duration, After” value (3 dpf zebrafish larvae; verapamil 1000 µM, n = 8, before drug 0.466 s) was 0.616 s.

In the case of `Cc1ccc2c(c1)C(=O)C1(O)CCN(c3ccccc3)C1=N2` (stereo not drawn) [blebbistatin], the “Adverse effects on ECG and embryo survival” value (3 dpf zebrafish) is reported as “adverse effects on the ECG and embryo survival” and the “Effect on contraction of cardiomyocytes / myocardial contractility” value (3 dpf zebrafish) is reported as “completely remove myocardial contractility”.

With `CC(=O)C(C)=NO` [BDM, 2,3-butanedione-monoxime] the “Adverse effects on ECG and embryo survival” value (3 dpf zebrafish) was “adverse effects on the ECG and embryo survival” and the “Effect on contraction of cardiomyocytes / myocardial contractility” value (3 dpf zebrafish) was “completely remove myocardial contractility”.

In the case of `CCOC(=O)c1cccc(N)c1.CS(=O)(=O)O` [MESAB, ethyl-3 aminobenzoate methanesulfonate], the “Mean interval duration QT” value (3 dpf zebrafish larvae; [4]) is reported as 0.3428 s, the “Mean interval duration QTc” value (3 dpf zebrafish larvae; [4]) is reported as 0.4944 s and the “Mean interval duration RR” value (3 dpf zebrafish larvae; [4]) is reported as 0.4798 s. The “Mean interval duration QT” value (3 dpf zebrafish larvae; [5]) was 0.3614 s, the “Mean interval duration QTc” value (3 dpf zebrafish larvae; [5]) was 0.5049 s and the “Mean interval duration RR” value (3 dpf zebrafish larvae; [5]) was 0.5123 s. For the same compound, the “Mean interval duration QT” value (3 dpf zebrafish larvae; [6]) was 0.3515 s, the “Mean interval duration QTc” value (3 dpf zebrafish larvae; [6]) was 0.5012 s and the “Mean interval duration RR” value (3 dpf zebrafish larvae; [6]) was 0.4917 s. For the same compound, the “Mean interval duration QT” value (3 dpf zebrafish larvae; [7]) was 0.3656 s, the “Mean interval duration QTc” value (3 dpf zebrafish larvae; [7]) was 0.5133 s and the “Mean interval duration RR” value (3 dpf zebrafish larvae; [7]) was 0.5517 s. For the same compound, the “Effect on R-R interval” value (3 dpf zebrafish larvae; MESAB at high concentrations (1 mg/ml), P<0.05) was “increase of the R-R interval” and the “Effect on heart rate (ƒH)” value (3 dpf zebrafish larvae) was “induced bradycardia”.
